From patent publication US20230414598A1, “COMBINATION THERAPIES WITH CBL-B INHIBITOR COMPOUNDS AND ANTIEMETIC AGENTS” (NURIX THERAPEUTICS, INC., priority 2022, published 2023) come the findings set out here.

Format in all cases: in vivo, human
Data set [1] is described as follows: Adverse events after oral administration of compound 23 to patients. The method, then:
The nausea and vomiting symptoms were mitigated when a single oral (versus other routes of adminstration such as intravenous) dose of 5-HT3 antagonist was administered 30-60 minutes prior to the compound 23 dosing. […] The adverse events (e.g., symptoms include nausea, vomiting, headache, hypotension, tachycardia, bradycardia, among others) were resolved within 24 hours prior to the next dose. The nausea and vomiting were controlled by serotonin (5-HT3) receptor blockers, ondansetron and granisetron.

Data set [2] relates to patient's nausea and vomiting symptoms. The experiment in a line: Antiemetic given prior to compound 23: control of nausea and vomiting. As to conditions: for effect on emetic symptoms (nausea and vomiting): single oral dose 30-60 minutes prior to compound 23 dosing.
Protocol: Prior to administration of compound 23, the antiemetic was administered as outlined below. Example 1: ondansetron via IV: 8 mg or 0.15 mg/kg as single dose; maximum dose of 16 mg/dose. Example 1B: ondansetron via oral: 8 mg up to twice daily. In this example, the patient was weaned off ondansetron via oral after two weeks. […] Example 2: granisetron via IV: 1 mg or 10 mcg/kg as a single dose. Example 2B granisetron via oral: 2 mg as a single dose. In this example, the patient was weaned off oral granisetron after four weeks. […] Example 2C: granisetron via SUBQ: 10 mg as single dose. Example 2D: granisetron via transdermal: apply one patch. Example 5: metoclopramide, a dopamine antagonist, via oral: 10 mg 30 minutes prior to the adminstration of compound 23. […] Example 6: diphenhydramine, a histamine antagonist, via oral or parental: 25 mg or 50 mg 30 minutes prior to the adminstration of compound 23.
The nature of data set [3]: Pharmacokinetic analysis of compound 23 plasma concentrations in patients (LC-MS/MS, non-compartmental). As to conditions: for AUC(0-t) / Cmax / half-life / Tmax: human, plasma; for AUC(0-t) / Cmax: geometric mean; for half-life: mean; for Tmax: median. The method, then: Patients were administered doses of compound 23 ranging from 5 to 50 mg once daily. Plasma concentrations of compound 23 were quantified using acetonitrile precipitation and LC-MS/MS. The peak area of the product ion of the analyte was measured against the peak area of the product ion of the stable label internal standard. A calibration curve spanning the curve range and containing at least six conentrations in duplicate was used to quantify the analyte concentration. The retention times of the analyte and internal standard are approximately 1.5 minutes. PK analyses were donucted using non-compartmental analyses to obtain PK parameters. […] Patients were administered doses of compound 23 ranging from 5 to 50 mg once daily. Plasma concentrations of compound 23 were quantified using acetonitrile precipitation and LC-MS/MS. The peak area of the product ion of the analyte was measured against the peak area of the product ion of the stable label internal standard. A calibration curve spanning the curve range and containing at least six conentrations in duplicate was used to quantify the analyte concentration. The retention times of the analyte and internal standard are approximately 1.5 minutes. PK analyses were donucted using non-compartmental analyses to obtain PK parameters. […] PK data are provided below (Cmax and AUC0-last are presented as geometric mean (geometric %C V); Tmax is presented as median (range); t1/2 is presented as mean (% CV).

In data set [4] the test system is 5-HT. The experiment in a line: 5-HT levels in the local gut after compound 23. As to conditions: after administration of compound 23.
The mark [5] stands for this setting: 25 mg and 50 mg single daily dose administered fasting.
Where [6] appears, read: Cycle 1 Day 1, 5 mg once daily (n = 1).
The mark [7] stands for this setting: Cycle 1 Day 1, 15 mg once daily (n = 9).
Where [8] appears, read: Cycle 1 Day 1, 25 mg once daily (n = 6).
Setting [9] is: Cycle 1 Day 1, 50 mg once daily (n = 2).

As for `C[C@H]1CCCN(Cc2cc3c(c(C(F)(F)F)c2)CN(c2cccc([C@]4(c5nncn5C)C[C@@H](C)C4)c2)C3=O)C1` [Compound 23], in data set [1] (setting [5]), the adverse events induced entry is “signficant events of nausea, vomiting, synocope, tachycardia, hypotension, and bradycardia”; the “time to onset of adverse events” value is at most 2 h. The “time to resolution of adverse events” value in data set [1] (nausea, vomiting, headache, hypotension, tachycardia, bradycardia, prior to the next dose) is at most 24 h. Moreover, in data set [2] (daily compound 23 after patient weaned off oral granisetron after four weeks), the “need for antiemetic after weaning” value is “without the need for granisetron”. In addition, the “need for antiemetic after weaning” value in data set [2] (daily compound 23 after patient weaned off oral ondansetron after two weeks) was “without the need for ondanesetron”. Besides, in data set [3] (5 to 50 mg once daily), the “accumulation upon repeat daily dosing” value is “no accumulation” and the “dose proportionality of exposures” value is on record as “dose-proportional increase in exposures”. In data set [3] (setting [6]), the AUC(0-t) amounted to 26.2 ng·h/mL, the peak level (Cmax) was 4.35 ng/mL, the half-life is 7.72 h and the Tmax was found to be 2 h. For the same compound, in data set [3] (setting [7]), the AUC(0-t) amounted to 129 ng·h/mL, the Cmax turned out to be 16.2 ng/mL, the half-life is 7.14 h and the Tmax came to 2 h. In data set [3] (setting [8]), the AUC(0-t) turned out to be 201 ng·h/mL, the Cmax is 30.1 ng/mL, the half-life was 6.82 h and the Tmax amounted to 1.5 h. For the same compound, in data set [3] (setting [9]), the exposure AUC(0-t) was determined as 502 ng·h/mL, the peak concentration (Cmax) is 79.2 ng/mL, the half-life was 5.88 h and the Tmax stood at 2.5 h. Further, the “levels of 5-HT in the local gut” value in data set [4] is “increased levels of 5-HT in the local gut”.

With `CN(C)CCOC(c1ccccc1)c1ccccc1` [diphenhydramine], the “control of nausea and vomiting symptoms” value in data set [2] (oral or parenteral 25 mg or 50 mg 30 minutes prior to compound 23) is “did not control the patient's nausea and vomiting sympotms”.

Consider `CN1C2CCCC1CC(NC(=O)c1nn(C)c3ccccc13)C2` (stereo not shown) [granisetron], for which the “effect on emetic symptoms (nausea and vomiting)” value in data set [2] is listed as “reduced emetic symptoms”.

Take `CCN(CC)CCNC(=O)c1cc(Cl)c(N)cc1OC` [metoclopramide]: the “control of nausea and vomiting symptoms” value in data set [2] (oral 10 mg 30 minutes prior to compound 23) was “did not control the patient's nausea and vomiting sympotms”.

With `Cc1nccn1CC1CCc2c(c3ccccc3n2C)C1=O` (stereo not shown) [ondansetron], the “effect on emetic symptoms (nausea and vomiting)” value in data set [2] is listed as “reduced emetic symptoms”.

By AUC(0-t) is commonly meant exposure summed from dosing to a finite time, without extrapolation to infinity. A lower AUC(0-t) goes with less exposure. For orientation: Cmax means the highest concentration seen after dosing. The term half-life denotes the time in which the quantity being followed falls by half. Low values mean fast loss, high ones slow loss. The term Tmax denotes the time at which the peak concentration occurs.
